Data from patent US20240252454A1, “COMPOSITION COMPRISING AN INHIBITOR OF MITOCHONDRIAL TRANSCRIPTION” (LEAD DISCOVERY CENTER GMBH, priority 2021, published 2024).

Tests used:
Experiment in all cases: SRB assay, IMT combined with inhibitor
Type in all cases: cell-based
A375 = A375 (skin); concentration series of the labelled inhibitor + fixed concentration of IMT (3S)-1-[(2R)-2-[4-(2-chloro-4-fluoro-phenyl)-2-oxo-chromen-7-yl]oxypropanoyl]piperidine-3-carboxylic acid (Table 3: 40 nM, 120 h); negative=synergistic, positive=antagonistic
Method in brief: (§1)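 Cells are grown at near-physiological glucose (5 mM) and given a dilution series of a MAPK signalling pathway SOC plus 40 nM (3S)-1-[(2R)-2-[4-(2-chloro-4-fluoro-phenyl)-2-oxo-chromen-7-yl]oxypropanoyl]piperidine-3-carboxylic acid held constant. After 120 h, biomass is quantified with sulforhodamine B.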

A549 = A549 (lung); concentration series of the labelled inhibitor + fixed concentration of IMT (3S)-1-[(2R)-2-[4-(2-chloro-4-fluoro-phenyl)-2-oxo-chromen-7-yl]oxypropanoyl]piperidine-3-carboxylic acid (Table 3: 40 nM, 120 h); negative=synergistic, positive=antagonistic
Method in brief: as §1

A673 = A673 (muscle); concentration series of the labelled inhibitor + fixed concentration of IMT (3S)-1-[(2R)-2-[4-(2-chloro-4-fluoro-phenyl)-2-oxo-chromen-7-yl]oxypropanoyl]piperidine-3-carboxylic acid (Table 3: 40 nM, 120 h); negative=synergistic, positive=antagonistic
Method in brief: as §1

CALU6 = CALU6 (lung); concentration series of the labelled inhibitor + fixed concentration of IMT (3S)-1-[(2R)-2-[4-(2-chloro-4-fluoro-phenyl)-2-oxo-chromen-7-yl]oxypropanoyl]piperidine-3-carboxylic acid (Table 3: 40 nM, 120 h); negative=synergistic, positive=antagonistic
Method in brief: as §1

DU145 = DU145 (prostate); concentration series of the labelled inhibitor + fixed concentration of IMT (3S)-1-[(2R)-2-[4-(2-chloro-4-fluoro-phenyl)-2-oxo-chromen-7-yl]oxypropanoyl]piperidine-3-carboxylic acid (Table 3: 40 nM, 120 h); negative=synergistic, positive=antagonistic
Method in brief: as §1

HCT15 = HCT15 (colon); concentration series of the labelled inhibitor + fixed concentration of IMT (3S)-1-[(2R)-2-[4-(2-chloro-4-fluoro-phenyl)-2-oxo-chromen-7-yl]oxypropanoyl]piperidine-3-carboxylic acid (Table 3: 40 nM, 120 h); negative=synergistic, positive=antagonistic
Method in brief: as §1

HELA = HELA (cervix); concentration series of the labelled inhibitor + fixed concentration of IMT (3S)-1-[(2R)-2-[4-(2-chloro-4-fluoro-phenyl)-2-oxo-chromen-7-yl]oxypropanoyl]piperidine-3-carboxylic acid (Table 3: 40 nM, 120 h); negative=synergistic, positive=antagonistic
Method in brief: as §1

HT1080 = HT1080 (connective tissue); concentration series of the labelled inhibitor + fixed concentration of IMT (3S)-1-[(2R)-2-[4-(2-chloro-4-fluoro-phenyl)-2-oxo-chromen-7-yl]oxypropanoyl]piperidine-3-carboxylic acid (Table 3: 40 nM, 120 h); negative=synergistic, positive=antagonistic
Method in brief: as §1

JAR = JAR (placenta); concentration series of the labelled inhibitor + fixed concentration of IMT (3S)-1-[(2R)-2-[4-(2-chloro-4-fluoro-phenyl)-2-oxo-chromen-7-yl]oxypropanoyl]piperidine-3-carboxylic acid (Table 3: 40 nM, 120 h); negative=synergistic, positive=antagonistic
Method in brief: as §1

LOVO = LOVO (colon); concentration series of the labelled inhibitor + fixed concentration of IMT (3S)-1-[(2R)-2-[4-(2-chloro-4-fluoro-phenyl)-2-oxo-chromen-7-yl]oxypropanoyl]piperidine-3-carboxylic acid (Table 3: 40 nM, 120 h); negative=synergistic, positive=antagonistic
Method in brief: as §1

MIAPACA2 = MIAPACA2 (pancreas); concentration series of the labelled inhibitor + fixed concentration of IMT (3S)-1-[(2R)-2-[4-(2-chloro-4-fluoro-phenyl)-2-oxo-chromen-7-yl]oxypropanoyl]piperidine-3-carboxylic acid (Table 3: 40 nM, 120 h); negative=synergistic, positive=antagonistic
Method in brief: as §1

MV4-11 = MV4-11 (hematological); concentration series of the labelled inhibitor + fixed concentration of IMT (3S)-1-[(2R)-2-[4-(2-chloro-4-fluoro-phenyl)-2-oxo-chromen-7-yl]oxypropanoyl]piperidine-3-carboxylic acid (Table 3: 40 nM, 120 h); negative=synergistic, positive=antagonistic
Method in brief: as §1

NCIH460 = NCIH460 (lung); concentration series of the labelled inhibitor + fixed concentration of IMT (3S)-1-[(2R)-2-[4-(2-chloro-4-fluoro-phenyl)-2-oxo-chromen-7-yl]oxypropanoyl]piperidine-3-carboxylic acid (Table 3: 40 nM, 120 h); negative=synergistic, positive=antagonistic
Method in brief: as §1

SKMEL28 = SKMEL28 (skin); concentration series of the labelled inhibitor + fixed concentration of IMT (3S)-1-[(2R)-2-[4-(2-chloro-4-fluoro-phenyl)-2-oxo-chromen-7-yl]oxypropanoyl]piperidine-3-carboxylic acid (Table 3: 40 nM, 120 h); negative=synergistic, positive=antagonistic
Method in brief: as §1

SKOV3 = SKOV3 (ovary); concentration series of the labelled inhibitor + fixed concentration of IMT (3S)-1-[(2R)-2-[4-(2-chloro-4-fluoro-phenyl)-2-oxo-chromen-7-yl]oxypropanoyl]piperidine-3-carboxylic acid (Table 3: 40 nM, 120 h); negative=synergistic, positive=antagonistic
Method in brief: as §1

SMILES	difference between the calculated combinatorial index (BLISS) and the observed combinatorial effect (A375)	difference between the calculated combinatorial index (BLISS) and the observed combinatorial effect (A549)	difference between the calculated combinatorial index (BLISS) and the observed combinatorial effect (A673)	difference between the calculated combinatorial index (BLISS) and the observed combinatorial effect (CALU6)	difference between the calculated combinatorial index (BLISS) and the observed combinatorial effect (DU145)	difference between the calculated combinatorial index (BLISS) and the observed combinatorial effect (HCT15)	difference between the calculated combinatorial index (BLISS) and the observed combinatorial effect (HELA)	difference between the calculated combinatorial index (BLISS) and the observed combinatorial effect (HT1080)	difference between the calculated combinatorial index (BLISS) and the observed combinatorial effect (JAR)	difference between the calculated combinatorial index (BLISS) and the observed combinatorial effect (LOVO)	difference between the calculated combinatorial index (BLISS) and the observed combinatorial effect (MIAPACA2)	difference between the calculated combinatorial index (BLISS) and the observed combinatorial effect (MV4-11)	difference between the calculated combinatorial index (BLISS) and the observed combinatorial effect (NCIH460)	difference between the calculated combinatorial index (BLISS) and the observed combinatorial effect (SKMEL28)	difference between the calculated combinatorial index (BLISS) and the observed combinatorial effect (SKOV3)
CC(C)(C)c1nc(-c2cccc(NS(=O)(=O)c3c(F)cccc3F)c2F)c(-c2ccnc(N)n2)s1 [Dabrafenib]	0.0337	−0.0892	−0.0146	−0.0342	−0.0114	0.0551	−0.0022	−0.1475	0.0431	−0.0384	0.0508	0.0205	−0.0275	0.0194	0.0282
CS(=O)(=O)N1CCN(Cc2cc3nc(-c4cccc5[nH]ncc45)nc(N4CCOCC4)c3s2)CC1 [GDC-0941, 2-(1H-Indazol-4-yl)-6-[[4-(methylsulfonyl)-1-piperazinyl]methyl]-4-(4-morpholinyl)thieno[3,2-d]pyrimidine]	−0.0654	0.0023	0.0099	−0.0406	0.0436	0.0270	−0.0531	0.0172	0.0136	−0.0539	0.0516	0.0272	−0.0178	−0.0330	0.0556
CC(=O)Nc1cccc(-n2c(=O)n(C3CC3)c(=O)c3c(Nc4ccc(I)cc4F)n(C)c(=O)c(C)c32)c1 [Trametinib]	0.0510	−0.0142	0.0225	−0.0308	0.0287	0.0677	−0.0064	0.0288	0.0230	−0.0287	0.1602	0.0747	0.0180	0.0296	−0.0444
C[C@H](Nc1ncnc2nc[nH]c12)c1cc2cccc(Cl)c2c(=O)n1-c1ccccc1 [Duvelisib]	−0.0153	−0.0092	0.0570	0.0342	0.0362	0.0170	−0.0666	−0.0565	0.0624	−0.0219	−0.0183	0.0611	−0.0651	−0.0412	0.0398
O=C(c1cc(Cc2n[nH]c(=O)c3ccccc23)ccc1F)N1CCN(C(=O)C2CC2)CC1 [Olaparib]	−0.0650	0.0174	0.0334	0.0400	0.0557	−0.0472	−0.0307	–	0.0294	−0.0819	0.0529	0.0407	−0.0377	−0.0624	0.0092
